According to patent publication US8431540B2, “Modified lysine-mimetic compounds” (Zealand Pharma A/S, priority 2005, dated 2013):

How the values were obtained:
[1] = tested on: C6 glioma cells overexpressing connexin43; assay: In vitro cell swelling and dye uptake model (simulated ischemia); assay type: cell-based
Description: In this experiment, the effect of Compound 2 on calcein dye-uptake induced by metabolic inhibition in cultured C6 glioma cells overexpressing connexin43 was studied. Cells were incubated under control conditions and during simulated ischemia (SI) for 40 minutes in the presence of calcein (200 μM). Following incubation the cells were subjected to epifluorescence microscopy to determine the uptake of calcein. Incubation of C6 cells in SI medium increased dye-uptake to 5-fold above control values.

[2] = tested on: dogs subjected to a 60-min coronary artery occlusion and 4 hr reperfusion; assay: Canine infarct size and reperfusion arrhythmia model; assay type: in vivo; settings: dog, two highest doses; for Total incidence of VT: IV 10-min before reperfusion, controls 23.0±6.1; for Total PVC's: during reperfusion, control 11.1±1.6%; for Infarct size, expressed as percent of left ventricle: controls 19.0±3.5
Description: Compound 2 was tested in dogs subjected to a 60-min coronary artery occlusion and 4 hr reperfusion, as described by Hennan et al. ([…]., 317, 236-43 (2006)). Compound 2 was administered IV 10-min before reperfusion as a bolus+IV infusion at doses of: 0.25 μg/kg bolus+0.19 μg/kg/hr infusion (n=6); 2.5 μg/kg bolus+1.9 μg/kg/hr infusion (n=7); 25 μg/kg bolus+19 μg/kg/hr infusion (n=6); 75 μg/kg bolus+57 μg/kg/hr infusion (n=5); vehicle control (n=7). Premature ventricular complexes (PVC's) were quantified during reperfusion. Four or more consecutive PVC's was defined as ventricular tachycardia (VT).

[3] = tested on: isolated rat atrial strip; assay: Isolated atrial strip model of metabolic stress induced atrial conduction slowing; settings: rat left atrial strip; 40 min glucose-free, non-oxygenated buffer; control decreased by 22%
Description: Peptides suitable for administration to cardiac cells can be identified in an in vitro model as described by Haugan et al. (J. Cardiovasc. Electrophysiol., 16, 537-545 (2005)).
Rats (300-400 g) are killed by a sharp blow on the neck. The heart is rapidly excised and transferred to a small dish containing 37° oxygenated modified Tyrodes buffer containing (in mM): NaCl 136, KCl 4, MgCl2 0.8, CaCl2 1.8 HEPES 5, MES 5, Glucose 6, pH 7.3. The left atrium is carefully dissected and a tissue sample of approximately 2×6 mm is taken from the left atrial appendage and placed in a tissue chamber (volume 5 ml), (Steiert Organ Bath, Hugo Sach Electronic, Germany). The chamber is perfused throughout the study with 37° C. oxygenated Tyrodes buffer at a rate of 10 ml/min.
A bipolar stimulation electrode (Teflon coated stainless steel, diameter […]) is placed at one end of the tissue. Stimulation is performed at 1 Hz using rectangular pulses at double threshold (duration of stimulus 0.2 ms) delivered by a stimulator (Hugo Sachs, Type 215) through an isolation unit (Universal Isolated Stimulator Unit type 263, Hugo Sachs, Germany).
Two separate microelectrodes of pure iridium (World Precision Instruments, tip-impedance 3.5-4.0 MΩ) are placed on a line along the long-axis of the preparation for recording of atrial CV. […]

[4] = first value (25 μg/kg bolus+19 μg/kg/hr infusion)
[5] = second value (75 μg/kg bolus+57 μg/kg/hr infusion)

NCC(=O)N1C[C@H](NC(=O)c2ccccc2)C[C@H]1C(=O)O [Compound 2, (2S4R)1-(2-Amino-acetyl)-4-benzoylamino-pyrrolidine-2-carboxylic acid]
half-life in male rat liver microsomes: greater than 30 minutes | relative reduction of the SI inducible calcein dye-uptake response ([1]; 100 μM compound, simulated ischemia 40 minutes, calcein 200 μM, p<0.05 vs. vehicle): 32% | calcein dye-uptake during simulated ischemia ([1]; C6 glioma cells overexpressing connexin43, simulated ischemia 40 minutes): dose-dependently inhibited | cell swelling during the 40 min stress period ([1]; C6 glioma cells, control cells exhibited cell swelling): did not | Total incidence of VT [2, 4]: 1.7±0.8 events | Total incidence of VT [2, 5]: 2.2±1.4 events | Total PVC's [2, 4]: 2.0±0.7% | Total PVC's [2, 5]: 1.8±0.8% | Infarct size, expressed as percent of left ventricle [2, 4]: 7.9±1.5% | Infarct size, expressed as percent of left ventricle [2, 5]: 7.1±0.8% | atrial conduction velocity change compared to baseline [3]: did not change compared to baseline
